In patent US11642316B2, “Water-soluble curcumin mixture with high bioavailability and preparation method and application thereof” (HENAN ZHONGDA HENGYUAN BIOTECHNOLOGY STOCK CO., LTD., priority 2021, dated 2023):

Test: Bioavailability test of water-soluble curcumin mixture in rats (plasma, HPLC-MS/MS)
Type: in vivo
Details: intragastric administration, 200 mg·kg^−1 calculated as curcumin, plasma 0.167-12 h
From the text: After experimental testing in rats, the bioavailability test method of water-soluble curcumin mixture was verified according to the “Guidelines for Validation of 9012 Biological Sample Quantitative Analysis Method” in the fourth appendix of the Pharmacopoeia of the People's Republic of China (2015 Edition). Specific steps are as follows:
24 Healthy SD (spontaneous mutant Danforth's short tail) rats were randomly divided into 4 groups (6 in each group) after being adaptively reared for one week;
In each group, about 0.3 mL of blood was collected from the orbit at 0.167, 0.5, 1, 1.5, 2, 3, 5, 8 and 12 hours after administration, and centrifuged at 4000 rpm for 10 minutes. The plasma was stored at −20° C. for later use.
Separating 100 μL of plasma, adding 0.3 mL of ethyl acetate, mixing for 2 min, centrifuging at 4000 rpm for 10 min, and separating the supernatant; adding 0.3 mL of ethyl acetate to the precipitate, mixing for 2 min, and centrifuging at 4000 rpm for 10 min, vacuum drying at 40° C. Adding 100 μL of methanol to the residue, wetting the centrifuge tube, mixing for 2 min, filtering with 0.22 μm microporous membrane, analyzing and testing.
HPLC-MS/MS with emodin as the internal standard was used for detection, and DAS2.0 software was used to calculate the pharmacokinetic parameters and compare the relative bioavailability.

AUC (012 h) (SD rats): 140.36 ng·h/mL
AUC(0-t) (SD, rat, plasma, po, 200 mg/kg, read-out: AUC (012 h)): 108 ng·h/mL
Compound: COc1cc(/C=C/C(=O)CC(=O)/C=C/c2ccc(O)c(OC)c2)ccc1O [curcumin]
